SMILES strings stand for the structures. Read-outs that look alike come from different tables or passages of the source.

Regarding `Cc1cccc([C@H](C)c2cnc[nH]2)c1C` [dexmedetomidine, Dexmedetomidine], the solubility of dexmedetomidine result is, setting by setting: (in Duro-Tak 87-2979) “less than 2%”; (in Duro-Tak 387/87-2353 (acid functionalized acrylate polymer)) 10-15%; (in hydroxyl functionalized acrylate polymer) “less than 1%”; (in levulinic acid) around 60%; (in oleic acid) around 40%.

The values are drawn from patent US10987342B2, “Methods and compositions for transdermal delivery of a non-sedative amount of dexmedetomidine” (Teikoku Pharma USA, Inc., priority 2013, dated 2021).
